Measured values taken from ChEMBL document CHEMBL5532680, “Identification of a Sonically Activated Degrader of Methionine Adenosyltransferase 2A by an in Silico Approach Assisted with the Hole-Electron Analysis” (J Med Chem, 2024).
Calls of active or inactive are those of the source. No cut-off for these calls is given here.

What was measured:
HCT-116 [1] = assay: Antiproliferative activity against MTAP knocked out human HCT-116 cells under 4 mins sonication; format: functional, cell-based; conditions: HCT-116, 4 min
[2] = molecular target: T1, S-adenosylmethionine synthase isoform type-2 (Homo sapiens, UniProt P31153); assay: Induction of MAT2A degradation in human HCT-116 cells preincubated for 4 hrs followed by 1.0 MHz, 0.8W/cm2 ultrasound treatment for 0.5 mins by Western blotting assay; format: cell-based
Target sequence in this assay (P31153 whole entry, canonical isoform): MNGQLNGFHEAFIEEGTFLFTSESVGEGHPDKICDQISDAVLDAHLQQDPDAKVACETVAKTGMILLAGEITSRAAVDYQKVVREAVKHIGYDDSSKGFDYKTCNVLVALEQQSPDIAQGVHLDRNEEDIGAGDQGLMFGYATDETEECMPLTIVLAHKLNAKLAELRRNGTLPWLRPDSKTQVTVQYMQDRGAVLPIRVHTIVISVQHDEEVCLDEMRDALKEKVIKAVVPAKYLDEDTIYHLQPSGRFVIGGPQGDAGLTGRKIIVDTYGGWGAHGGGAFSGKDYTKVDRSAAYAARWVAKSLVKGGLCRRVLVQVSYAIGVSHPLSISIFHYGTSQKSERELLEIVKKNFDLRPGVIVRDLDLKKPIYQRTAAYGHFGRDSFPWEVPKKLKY

[3] = Biodistribution in MATP knocked out human HCT-116 cells xenografted in BALB/c mouse assessed as fluorescence intensity in tumor at 10 mg/kg, po measured after 24 hrs; format: ADME, organism-based; conditions: in vivo
[4] = Biodistribution in MATP knocked out human HCT-116 cells xenografted in BALB/c mouse assessed as fluorescence intensity in lung at 10 mg/kg, po measured after 24 hrs; format: ADME, organism-based; conditions: in vivo
HCT-116 [5] = assay: Antiproliferative activity against wild type human HCT-116 cells preincubated with AG-270 followed by compound addition; format: functional, cell-based
[6] = Inhibition of uridine glucuronyl transferase (unknown origin); set-up: species or system Homo sapiens
[7] = Mean residence time in BALB/c mouse at 10 mg/kg, po measured upto 24 hrs by LC-MS/MS analysis; format: ADME, organism-based; conditions: in vivo
[8] = Toxicity in BALB/c mouse xenografted with human HCT-116 cells assessed as lung damage at 10 mg/kg, po by H and E staining based assay; format: organism-based; conditions: in vivo
[9] = Toxicity in BALB/c mouse xenografted with human HCT-116 cells assessed as change in liver cell nucleus size at 100 mg/kg, po by H and E staining based assay; format: organism-based; conditions: in vivo
HCT-116 [10] = assay: Antiproliferative activity against MTAP knocked out human HCT-116 cells incubated for 5 days by MTT method relative to control; format: functional; conditions: time 5 day
HCT-116 [11] = assay: Antitumor activity against […] knocked out human HCT-116 cells xenografted in BALB/c mouse assessed as tumor growth inhibition at 10 mg/kg, po administered once a day followed by 4 mins sonication post 6 hrs of compound administration and measured for 3 weeks; format: functional; conditions: HCT-116, 504 h, read-out: TGI
HCT-116 [12] = assay: Antitumor activity against […] knocked out human HCT-116 cells xenografted in BALB/c mouse assessed as tumor growth inhibition at 50 mg/kg, po administered once a day for 6 hrs and measured after 3 weeks; format: functional; conditions: HCT-116, 504 h, read-out: TGI
[13] = molecular target: T1, S-adenosylmethionine synthase isoform type-2; assay: Inhibition of recombinant human MAT2A expressed in baculovirus infected Sf9 cells at grated than 10 nM using L-methione as substrate preincubated for 15 mins followed by substrate addition and measured after 60 mins in presence of ATP by Kinase-Glo luminescent assay; conditions: time 75.0 min
Target sequence in this assay (P31153 whole entry, looked up, canonical isoform): as the sequence (P31153 whole entry, canonical isoform) above

[14] = Intrinsic clearance in human liver microsomes; format: ADME, Microsome; conditions: read-out: CLH
Cytochrome P450 1A2 = molecular target: T2, Cytochrome P450 1A2 (Homo sapiens, UniProt P05177); assay: Inhibition of CYP1A2 (unknown origin); format: ADME
T2 sequence (P05177 whole entry): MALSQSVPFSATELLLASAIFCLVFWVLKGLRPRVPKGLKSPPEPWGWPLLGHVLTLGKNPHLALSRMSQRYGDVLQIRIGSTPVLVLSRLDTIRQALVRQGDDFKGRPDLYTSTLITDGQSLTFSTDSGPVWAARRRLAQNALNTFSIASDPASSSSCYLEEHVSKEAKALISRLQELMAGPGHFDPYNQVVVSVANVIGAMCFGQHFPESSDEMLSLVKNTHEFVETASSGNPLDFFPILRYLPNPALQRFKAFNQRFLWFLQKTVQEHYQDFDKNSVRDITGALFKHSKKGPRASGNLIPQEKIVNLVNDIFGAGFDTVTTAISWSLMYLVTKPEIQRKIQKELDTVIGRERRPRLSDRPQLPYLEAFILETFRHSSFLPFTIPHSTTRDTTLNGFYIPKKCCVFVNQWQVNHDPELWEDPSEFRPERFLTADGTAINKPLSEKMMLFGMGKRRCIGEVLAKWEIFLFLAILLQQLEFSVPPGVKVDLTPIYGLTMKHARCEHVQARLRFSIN

[15] = Biodistribution in […] knocked out human HCT-116 cells xenografted in BALB/c mouse assessed as fluorescence intensity in heart at 10 mg/kg, po measured after 24 hrs; format: ADME, organism-based; conditions: in vivo
HCT-116 [16] = assay: Induction of ROS generation in human HCT-116 cells at 0.001 to 1 uM incubated for 6 hrs by DCFH-DA staining based flow cytometry analysis; format: functional, cell-based; conditions: dose 0.001-1 µM
[17] = molecular target: T1, S-adenosylmethionine synthase isoform type-2; assay: Induction of MAT2A degradation in human HCT-116 cells assessed as degradation maximum at higher than 1 uM preincubated for 4 hrs followed by 1.0 MHz, 0.8W/cm2 ultrasound treatment for 0.5 mins by Western blotting assay relative to control; format: cell-based; conditions: time 240.5 min
Target sequence in this assay (P31153 whole entry, looked up, canonical isoform): as the sequence (P31153 whole entry, canonical isoform) above

[18] = Cmax in ICR mouse at 10 mg/kg, po measured upto 24 hrs by LC-MS/MS analysis; format: ADME, organism-based; conditions: in vivo
HCT-116 [19] = assay: Antiproliferative activity against MTAP knocked out human HCT-116 cells incubated for 5 days by MTT method; format: functional, cell-based; conditions: HCT-116, 120 h
[20] = Biodistribution in MATP knocked out human HCT-116 cells xenografted in BALB/c mouse assessed as fluorescence intensity in skin at 10 mg/kg, po measured after 24 hrs; format: ADME, organism-based; conditions: in vivo
[21] = AUC in ICR mouse at 1 mg/kg, iv measured upto 24 hrs by LC-MS/MS analysis; format: ADME, organism-based; conditions: in vivo
[22] = Toxicity in BALB/c mouse xenografted with human HCT-116 cells assessed as spleen damage at 10 mg/kg, po by H and E staining based assay; format: organism-based; conditions: in vivo
[23] = molecular target: Voltage-gated inwardly rectifying potassium channel KCNH2 (Homo sapiens, UniProt Q12809); assay: Inhibition of hERG by plate based patch clamp method; format: toxicity
Sequence of Voltage-gated inwardly rectifying potassium channel KCNH2 (Q12809 whole entry, canonical isoform): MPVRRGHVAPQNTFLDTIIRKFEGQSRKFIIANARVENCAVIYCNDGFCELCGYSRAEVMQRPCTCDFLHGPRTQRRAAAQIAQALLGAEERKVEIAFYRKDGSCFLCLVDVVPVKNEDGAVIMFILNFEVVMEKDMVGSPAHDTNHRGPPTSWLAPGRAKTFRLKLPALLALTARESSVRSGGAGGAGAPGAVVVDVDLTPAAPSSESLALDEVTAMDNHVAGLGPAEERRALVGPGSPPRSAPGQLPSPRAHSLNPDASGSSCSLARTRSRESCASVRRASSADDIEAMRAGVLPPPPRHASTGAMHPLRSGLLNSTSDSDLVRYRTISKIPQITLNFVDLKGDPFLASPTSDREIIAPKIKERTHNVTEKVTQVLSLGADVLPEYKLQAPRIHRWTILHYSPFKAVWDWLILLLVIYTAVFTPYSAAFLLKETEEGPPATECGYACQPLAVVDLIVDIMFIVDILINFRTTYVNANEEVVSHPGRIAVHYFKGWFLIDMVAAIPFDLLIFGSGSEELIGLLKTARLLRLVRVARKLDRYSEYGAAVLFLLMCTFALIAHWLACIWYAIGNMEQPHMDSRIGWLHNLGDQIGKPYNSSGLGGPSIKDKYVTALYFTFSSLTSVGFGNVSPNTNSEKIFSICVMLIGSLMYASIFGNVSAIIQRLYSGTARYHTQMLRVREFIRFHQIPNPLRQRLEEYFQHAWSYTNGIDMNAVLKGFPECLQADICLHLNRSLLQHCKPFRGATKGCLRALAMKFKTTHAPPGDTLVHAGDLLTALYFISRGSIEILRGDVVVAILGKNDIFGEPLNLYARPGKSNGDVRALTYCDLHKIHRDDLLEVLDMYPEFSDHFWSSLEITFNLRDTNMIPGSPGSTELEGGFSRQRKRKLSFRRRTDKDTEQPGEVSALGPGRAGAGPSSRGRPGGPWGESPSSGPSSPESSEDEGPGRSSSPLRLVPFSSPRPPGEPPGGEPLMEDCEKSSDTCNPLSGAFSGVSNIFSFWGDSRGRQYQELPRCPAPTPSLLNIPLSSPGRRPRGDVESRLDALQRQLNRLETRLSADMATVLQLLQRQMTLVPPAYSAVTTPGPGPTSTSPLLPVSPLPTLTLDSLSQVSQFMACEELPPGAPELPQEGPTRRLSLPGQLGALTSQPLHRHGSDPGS

[24] = molecular target: T1, S-adenosylmethionine synthase isoform type-2; assay: Inhibition of recombinant human MAT2A expressed in baculovirus infected Sf9 cells using L-methione as substrate preincubated for 15 mins followed by substrate addition and measured after 60 mins in presence of ATP by Kinase-Glo luminescent assay
Target sequence in this assay (P31153 whole entry, canonical isoform): as the sequence (P31153 whole entry, canonical isoform) above

Cytochrome P450 2C19 = Cytochrome P450 2C19 (Homo sapiens, UniProt P33261); assay: Inhibition of CYP2C19 (unknown origin); format: ADME
Sequence of Cytochrome P450 2C19 (P33261 whole entry): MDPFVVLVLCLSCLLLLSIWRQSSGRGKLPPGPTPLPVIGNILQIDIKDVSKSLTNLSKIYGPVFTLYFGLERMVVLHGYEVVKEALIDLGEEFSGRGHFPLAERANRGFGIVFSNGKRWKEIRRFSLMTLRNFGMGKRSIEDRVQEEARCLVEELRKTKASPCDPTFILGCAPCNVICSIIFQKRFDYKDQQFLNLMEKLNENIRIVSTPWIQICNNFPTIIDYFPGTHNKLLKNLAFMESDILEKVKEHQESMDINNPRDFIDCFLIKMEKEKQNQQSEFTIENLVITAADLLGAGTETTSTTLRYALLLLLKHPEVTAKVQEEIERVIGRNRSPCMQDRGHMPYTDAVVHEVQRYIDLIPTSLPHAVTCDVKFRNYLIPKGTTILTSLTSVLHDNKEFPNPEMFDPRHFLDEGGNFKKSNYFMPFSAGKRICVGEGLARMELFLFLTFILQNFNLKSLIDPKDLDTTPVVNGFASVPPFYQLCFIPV

[25] = AUC(0 to 24 hrs) in BALB/c mouse at 10 mg/kg, po measured upto 24 hrs by LC-MS/MS analysis; format: ADME, organism-based; conditions: in vivo
[26] = Drug localization in human HCT-116 cells cytoplasm assessed as bright red fluorescence at 1 uM by Hoechst 33342 staining based confocal assay; format: ADME, cell-based; conditions: hct-116, 1 µM
HCT-116 [27] = assay: Antitumor activity against […] knocked out human HCT-116 cells xenografted in BALB/c mouse assessed as tumor growth inhibition at 10 mg/kg, po administered once a day for 6 hrs and measured after 3 weeks; format: functional; conditions: HCT-116, 504 h, read-out: TGI
HCT-116 [28] = assay: Induction of apoptosis in MTAP knocked out human HCT-116 cells at 0.1 uM preincubated for 24 hrs followed by sonication for 4 mins by annexin V-FITC/PI staining based flow cytometry analysis relative to control; format: functional, cell-based; conditions: time 1444.0 min
[29] = molecular target: T1, S-adenosylmethionine synthase isoform type-2; assay: Induction of MAT2A degradation in human HCT-116 cells incubated for 4 hrs by Western blotting assay; format: cell-based
Target sequence in this assay (P31153 whole entry, looked up, canonical isoform): as the sequence (P31153 whole entry, canonical isoform) above

[30] = Toxicity in BALB/c mouse xenografted with human HCT-116 cells assessed as spleen damage at 100 mg/kg, po by H and E staining based assay; format: organism-based; conditions: in vivo

With `CCOc1ncc2cc(-c3ccc4c(c3)N3CCCC3CO4)c(=O)n(-c3ccc(OC(F)F)cc3)c2n1` (configuration not stated) the IC50 (HCT-116 [1]) was 42 nM, the EC50 [2] was 360 nM and the Drug uptake [3] was “Active”. The Drug uptake [4] was “Active”, the Activity (HCT-116 [5]) was “inactive” and the IC50 [6] was 800 nM. The MRT [7] was 5.1 h, the Activity [8] was “Non-Toxic” and the Activity [9] was “Toxic”. It also gave an Activity (HCT-116 [10]) of 92%, an inhibition in vivo at 10 mg/kg (HCT-116 [11]) of 103% and an inhibition in vivo at 50 mg/kg (HCT-116 [12]) of 93.5%. The inhibition [13] was “Active”, the CLint scaled [14] was 9.6 mL/min/kg and the IC50 (Cytochrome P450 1A2) was greater than 50000 nM. The Drug uptake [15] was “Not Active”, the Activity (HCT-116 [16]) was “Active” and the Emax [17] was 76%. The Cmax [18] was 1380 ng/mL, the IC50 (HCT-116 [19]) was 350 nM and the Drug uptake [20] was “Active”. The AUC [21] was 1267 ng·h/mL, the Activity [22] was “Non-Toxic” and the IC50 [23] was greater than 50000 nM. It also gave an IC50 [24] of 61 nM, an IC50 (Cytochrome P450 2C19) of 16000 nM and an AUC [25] of 9714 ng·h/mL. The Drug uptake [26] was “Active”, the inhibition in vivo at 10 mg/kg (HCT-116 [27]) was 15.6% and the Activity (HCT-116 [28]) was “Active”. For the same compound, the Activity [29] was “inactive” and the Activity [30] was “Non-Toxic”.
